Source: patent US11584744B2 (UNIVERSITY OF WASHINGTON, priority 2017, dated 2023)
In brackets after ≈: the same amount, converted by molar mass. Read-outs that look alike come from different tables or passages of the source.

Experiments:
T. cruzi = T. cruzi growth inhibition; format: cell-based, Trypanosoma cruzi; conditions: read-out: (E) T. cruzi EC50
[1] = system: E. faecium VRE (ATCC 51559); assay: MIC susceptibility testing; format: cell-based, Enterococcus faecium; conditions: E. faecium ATCC 51559; for MIC: Enterococcus faecium, read-out: (I) E. faecium (ATCC 51559) MIC
In short: (§1)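 CLSI broth microdilution with two-fold compound dilutions, in triplicate; cells added in medium at 1×10^6 CFUs/mL, DMSO ≤0.5%. Media: MHB for S. aureus, CA-MHB for E. coli and E. faecium, CA-MHB plus 3% laked horse blood for S. pyogenes (5% CO2).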

[2] = system: S. aureus MRSA (ATCC 33591); assay: MIC susceptibility testing; format: cell-based, Staphylococcus aureus; conditions: Staphylococcus aureus, MRSA ATCC33591; read-out: (G) MRSA (ATCC33591) MIC
In short: as §1

[3] = system: S. aureus MSSA (ATCC 29213); assay: MIC susceptibility testing; format: cell-based, Staphylococcus aureus; conditions: S. aureus ATCC 29213
C. parvum = C. parvum growth inhibition; format: cell-based, Cryptosporidium parvum; conditions: read-out: (J) C. parvum EC50
MetRS (C. parvum) = MetRS (C. parvum) (Cryptosporidium parvum, UniProt Q5CVN0); assay: MetRS (C. parvum) enzyme inhibition; format: biochemical; conditions: read-out: (C) MetRS (C. parvum) IC50
[4] = system: G. lamblia (ATCC GL50803); assay: G. lamblia growth inhibition; format: cell-based; conditions: Giardia duodenalis, read-out: (K) G. lamblia (ATCC GL50803) EC50
T. brucei = T. brucei growth inhibition; format: cell-based, Trypanosoma brucei; conditions: read-out: (D) T. brucei EC50
S. aureus (ATCC 29213) [5] = assay: MBC determinations (with MIC); format: cell-based; conditions: Staphylococcus aureus, ATCC29213, S. aureus (ATCC 29213)
Description: Maximum DMSO concentrations were 0.5%. […] Each experiment's inoculum was serially diluted and plated on TSA to count competent cells. Cultures were incubated at 37° C. for at least 20 h and plated on TSA for CFU determination.
MIC/MBC: Measurements of minimum bactericidal concentrations (MBCs) were done with the S. aureus strain ATCC 29213 (Table 5).

S. aureus (ATCC 29213) [6] = format: cell-based, Staphylococcus aureus; conditions: 8× the MIC
Description: Resistance frequency rates determination: The spontaneous resistance frequency rates to test compounds was determined according to published methods. Agar selection plates were made by adding compound from DMSO stocks into molten Mueller Hinton agar in a 55° C. water bath. […] The final DMSO concentration was <0.1% per plate. Plates were dried in a sterile hood for 30 minutes prior to overnight storage at 4° C., and pre-warmed in the 37° C. incubator for 1 hour prior to assay.
A fresh overnight culture was diluted 1:50 in MHB and grown at 37° C. with shaking (150 rpm) until reaching an OD600 of 0.4 correlating to ˜2×10^9 CFUs/mL. Approximately 3 mL for a total of 6*10^9 CFUs were distributed onto 4 plates for each compound. Plates were incubated at 37° C. for 72 h prior to counting of colonies. The starting inoculum was also serially diluted and plated to quantify initial bacterial load. The resistance frequency was determined as the number of compound-resistant colonies divided by the total colonies plated.
Resistance frequency rates: The propensity for S. aureus to develop resistance to MetRS inhibitors was also studied (Table 6).

S. aureus = assay: Serum shift assays (MIC with and without 50% human serum); format: cell-based, Staphylococcus aureus; conditions: Staphylococcus aureus
Description: Serum shift assays: To assess the role of protein binding on compound susceptibility, MIC determinations were performed in triplicate in the presence and absence of 50% human serum. Serial threefold dilutions of 2× compound were generated in MHB and aliquoted onto 96 well plates with a DMSO limit of 0.5%. Bacteria were adjusted to 1*10^8 CFUs/mL in MHB, then further diluted 1:100 in MHB and 100% heat deactivated filter sterilized pooled human serum. Fifty microliters were added to each well of the corresponding plates, and the plates were incubated at 37° C. for ˜20 h. The lowest concentration causing ≥90% growth inhibition was recorded as the MIC.

Chain of MetRS (C. parvum) (Q5CVN0 entry or part of it): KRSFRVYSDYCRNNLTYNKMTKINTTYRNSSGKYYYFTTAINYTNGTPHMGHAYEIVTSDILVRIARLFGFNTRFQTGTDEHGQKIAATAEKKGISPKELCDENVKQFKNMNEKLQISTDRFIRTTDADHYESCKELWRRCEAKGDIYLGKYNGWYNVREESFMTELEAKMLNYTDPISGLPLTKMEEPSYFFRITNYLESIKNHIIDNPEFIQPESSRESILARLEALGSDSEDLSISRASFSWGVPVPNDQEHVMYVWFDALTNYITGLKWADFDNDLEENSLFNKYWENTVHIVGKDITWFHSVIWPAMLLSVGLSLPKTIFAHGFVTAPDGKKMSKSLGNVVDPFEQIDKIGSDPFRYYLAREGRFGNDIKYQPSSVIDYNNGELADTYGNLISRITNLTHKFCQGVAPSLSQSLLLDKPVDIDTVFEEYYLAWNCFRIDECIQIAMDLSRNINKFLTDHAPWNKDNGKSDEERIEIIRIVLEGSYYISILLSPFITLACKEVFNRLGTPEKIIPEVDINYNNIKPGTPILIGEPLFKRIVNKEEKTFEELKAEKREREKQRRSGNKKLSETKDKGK

SMILES	EC50 (T. cruzi; Trypanosoma cruzi)	EC50 (T. cruzi)	(I) E. faecium (ATCC 51559) MIC [1]	MIC [1]	MIC [2]	(F) S. aureus (ATCC 29213) MIC [3]	MIC ([3]; Staphylococcus aureus, read-out: (F) S. aureus (ATCC 29213) MIC)	EC50 (C. parvum; Cryptosporidium parvum)	EC50 (C. parvum)	IC50 (MetRS (C. parvum))	EC50 [4]	EC50 (T. brucei; Trypanosoma brucei)	EC50 (T. brucei)	MIC (S. aureus (ATCC 29213) [5]; MBC experiment (Table 5), read-out: MIC)	MBC (S. aureus (ATCC 29213) [5]; concentration killing 99.9% of inoculum, read-out: MBC)	Resistance frequency (Expt. 2) (S. aureus (ATCC 29213) [6]; 72 h)	Resistance frequency (average or greater #) (S. aureus (ATCC 29213) [6]; two independent experiments)	MIC (S. aureus; 50% human serum, read-out: Avg MIC ± SEM (+50% serum))	MIC (S. aureus; no serum, read-out: Avg MIC ± SEM (no serum))
COc1ccc(-c2cccc3c2CN(Cc2nc4nc(Cl)ccc4[nH]2)C3=O)c(Cl)c1 [Compound 2230, 2-((5-chloro-1H-imidazo[4,5-b]pyridin-2-yl)methyl)-4-(2-chloro-4-methoxyphenyl)isoindolin-1-one]	28 nM	39.6 nM	0.134 µg/mL	0.0765 µg/mL (≈ 0.174 µM)	0.165 µg/mL (≈ 0.376 µM)	0.304 µg/mL	0.393 µg/mL (≈ 0.895 µM)	211 nM	196 nM	< 40 nM	10 nM	–	–	–	–	–	–	–	–
COc1ccc(-c2cccc3c2CN(Cc2nc4c(C#N)c(Cl)ccc4[nH]2)C3=O)c(Cl)c1 [Compound 2233, 5-chlor0-2-((4-(2-chloro-4-methoxyphenyl)-1-oxoisoindolin-2-yl)methyl)-1H-benzo[d]imidazole-4-carbonitrile]	207 nM	–	–	0.147 µg/mL (≈ 0.317 µM)	0.186 µg/mL (≈ 0.401 µM)	–	–	–	–	< 40 nM	20 nM	23.3 nM	27.8 nM	–	–	–	–	–	–
COc1cc(Cl)c(Cc2cn(Cc3nc4nc(Cl)ccc4[nH]3)c(=O)n2CC(C)(C)O)cc1OC [Compound 2240, 1-({5-chloro-1H-imidazo[4,5-b]pyridin-2-yl}methyl)-4-[(2-chloro-4,5-dimethoxyphenyl)methyl]-3-(2-hydroxy-2-methylpropyl)-2,3-dihydro-1H-imidazol-2-one]	5.7 nM	6.83 nM	0.0122 µg/mL	0.0141 µg/mL (≈ 0.0278 µM)	0.0578 µg/mL (≈ 0.114 µM)	–	–	–	–	< 40 nM	20 nM	< 0.91 nM	0.68 nM	–	–	–	–	–	–
COc1ccc(Cc2cn(Cc3nc4c(Cl)c(Cl)ccc4[nH]3)c(=O)n2CC(C)(C)O)c(Cl)c1 [Compound 2242, 4-[(2-chloro-4-methoxyphenyl)methyl]-1-[(6,7-dichloro-1H-1,3-benzodiazol-2-yl)methyl]-3-(2-hydroxy-2-methylpropyl)-2,3-dihydro-1H-imidazol-2-one]	112 nM	–	0.847 µg/mL	0.599 µg/mL (≈ 1.17 µM)	1.81 µg/mL (≈ 3.55 µM)	–	–	531 nM	800 nM	< 40 nM	50 nM	8.97 nM	11.8 nM	–	–	–	–	–	–
CO[C@@H]1[C@@H](OC(N)=O)[C@@H](O)[C@H](Oc2ccc3c(O)c(NC(=O)c4ccc(O)c(CC=C(C)C)c4)c(=O)oc3c2C)OC1(C)C [NOV, novobiocin]	–	–	–	–	–	–	–	–	–	–	–	–	–	0.156 µg/mL (≈ 0.255 µM)	5 µg/mL (≈ 8.16 µM)	1.58 × 10^−8	1.58 × 10^−8	12.9 ± 1.97 µg/mL	0.081 ± 0.02 µg/mL
